From US20030144233A1, “Conformation-activity relationship of apoptosis-inducing phosphodiester oligonucleotides” (priority 2001, published 2003)

tested on: Human Jurkat T cell leukemia cells; assay: Analysis of apoptosis by Annexin V FITC / propidium iodide staining and flow cytometry; assay type: cell-based; details: Jurkat T cells, oligonucleotides at final concentration of 53 μM; Table 1
Method: Human Jurkat T cell leukemia cells were obtained from the American Type Culture Collection (Rockville, Md.). The Jurkat T cells were maintained RPMI 1640 medium, supplemented with 10% heat-inactivated (56° C., 30 min) fetal bovine serum (all from Sigma Aldrich, Canada) in an atmosphere of 5% CO2 at 37° C. Cells were seeded at 2×10^5 cells/ml medium in 6-well float-bottomed tissue culture plates and incubated with oligonucleotides at a final concentration of 53 μM.
Apoptosis was measured by staining cells with Annexin V FITC and propidium iodide (PI) (BD Pharmingen, San Diego, Calif. USA) according to the manufacturer's instructions. Flow Cytometry (FCM) determined cellular fluorescence. The FCM and data analysis were carried out using a FACSCalibur instrument (excitation 488 nm, emission 530 nm for Annexin-V and 580 nm for PI) using the program CELLQuest.

Sequence | Apoptosis (%)
CCGTCC | 5
CTGTCT | 14
GGGCGG | 17
GGGGGG | 4
TCGTTC | 9.5

same assay, conditions: Jurkat T cells, oligonucleotides at final concentration of 53 μM; Table 2

Sequence | % apoptosis [%]
AAGTAA | 23
ATGTAT | 37
GGCCGG | 21

same assay, conditions: Jurkat T cells, oligonucleotides at final concentration of 53 μM; Table 3

Sequence | % apoptosis [%]
GGAAGG | 59
GGGTGG | 50
GGTTGG | 66
GTGTGT | 67
TGGTTG | 69
TGTGTG | 66

same assay, conditions: new sequences tested in vitro after prediction; Table 4

Sequence | ACTUAL % OF CELLS IN APOPTOSIS [%]
GGGAG | 73

same assay, conditions: phosphodiester versus phosphorothioate backbone

Sequence | apoptosis-inducing activity [%]
GGGTGG | 50
